Results: ChEMBL document CHEMBL5365412, “Discovery of benzodiazepine derivatives as a new class of covalent inhibitors of SARS-CoV-2 main protease” (Bioorg Med Chem Lett, 2023)

What was measured:
[1] = biological target: Replicase polyprotein 1ab (Severe acute respiratory syndrome coronavirus 2, UniProt P0DTD1); assay: Inhibition of SARS-CoV-2 main protease by FRET assay
[2] = biological target: Replicase polyprotein 1ab (Severe acute respiratory syndrome coronavirus 2) (UniProt P0DTD1); assay: Binding affinity to SARS-CoV-2 main protease assessed as change in melting temperature by DSF assay

SMILES: CC1CC(=O)C2=C(C1)Nc1cc([N+](=O)[O-])ccc1N(C(=O)CCl)C2C (stereo unspecified)
- IC50 [1]: 11 µM
- ΔTm [2]: 3.21 °C

SMILES: O=C1CCCC2=C1C(C1CC1)N(C(=O)CCl)c1ccc([N+](=O)[O-])cc1N2 (stereo unspecified)
- IC50 [1]: 2.55 µM
- ΔTm [2]: 4.77 °C

SMILES: CC1(C)CC(=O)C2=C(C1)Nc1cc([N+](=O)[O-])ccc1N(C(=O)CCl)C2
- IC50 [1]: 24.4 µM
- ΔTm [2]: 1.85 °C

SMILES: O=C1CCCC2=C1C(c1ccc(OC(F)(F)F)cc1)N(C(=O)CCl)c1ccc([N+](=O)[O-])cc1N2 (stereo unspecified)
- IC50 [1]: 2.03 µM
- ΔTm [2]: 3.65 °C

SMILES: Cc1ccc(C2C3=C(CC(C)(C)CC3=O)Nc3cc([N+](=O)[O-])ccc3N2C(=O)CCl)cc1 (stereo unspecified)
- IC50 [1]: 3.94 µM
- ΔTm [2]: 3.27 °C

SMILES: CC1CC(=O)C2=C(C1)Nc1cc([N+](=O)[O-])ccc1N(C(=O)CCl)C2C1CCCC1 (stereo unspecified)
- IC50 [1]: 5.15 µM
- ΔTm [2]: 3.01 °C

SMILES: CC1CC(=O)C2=C(C1)Nc1cc([N+](=O)[O-])ccc1N(C(=O)CCl)C2C1CCCCC1 (stereo unspecified)
- IC50 [1]: 3.63 µM
- ΔTm [2]: 2.57 °C

SMILES: CC1(C)CC(=O)C2=C(C1)Nc1cc([N+](=O)[O-])ccc1N(C(=O)CCl)C2c1ccc(F)cc1F (stereo unspecified)
- IC50 [1]: 9.55 µM
- ΔTm [2]: 2.94 °C

SMILES: O=C1CCCC2=C1C(c1ccc(C(F)(F)F)cc1)N(C(=O)CCl)c1ccc([N+](=O)[O-])cc1N2 (stereo unspecified)
- IC50 [1]: 1.02 µM
- ΔTm [2]: 6.6 °C

SMILES: O=C1CCCC2=C1C(c1ccccc1)N(C(=O)CCl)c1ccc([N+](=O)[O-])cc1N2 (stereo unspecified)
- IC50 [1]: 1.67 µM
- ΔTm [2]: 5.71 °C

SMILES: CC1CC(=O)C2=C(C1)Nc1cc([N+](=O)[O-])ccc1N(C(=O)CCl)C2c1ccc(OC(F)(F)F)cc1 (stereo unspecified)
- IC50 [1]: 4.15 µM
- ΔTm [2]: 0.13 °C

SMILES: CC1(C)CC(=O)C2=C(C1)Nc1cc([N+](=O)[O-])ccc1N(C(=O)CCl)C2c1ccc(OC(F)(F)F)cc1 (stereo unspecified)
- IC50 [1]: 5.68 µM
- ΔTm [2]: -1.64 °C

SMILES: O=C1CCCC2=C1C(C1CCCCC1)N(C(=O)CCl)c1ccc([N+](=O)[O-])cc1N2 (stereo unspecified)
- IC50 [1]: 1.59 µM
- ΔTm [2]: 7.14 °C

SMILES: Cc1ccc(C2C3=C(CCCC3=O)Nc3cc([N+](=O)[O-])ccc3N2C(=O)CCl)cc1 (stereo unspecified)
- IC50 [1]: 2.35 µM
- ΔTm [2]: 4.44 °C

SMILES: CC1CC(=O)C2=C(C1)Nc1cc([N+](=O)[O-])ccc1N(C(=O)CCl)C2 (stereo unspecified)
- IC50 [1]: 11.5 µM
- ΔTm [2]: 2.79 °C

SMILES: CC1(C)CC(=O)C2=C(C1)Nc1cc([N+](=O)[O-])ccc1N(C(=O)CCl)C2C1CC1 (stereo unspecified)
- IC50 [1]: 13.3 µM
- ΔTm [2]: 2.01 °C

SMILES: CC1C2=C(CCCC2=O)Nc2cc([N+](=O)[O-])ccc2N1C(=O)CCl (stereo unspecified)
- IC50 [1]: 3.69 µM
- ΔTm [2]: 4.5 °C

SMILES: COc1ccc(C2C3=C(CC(C)CC3=O)Nc3cc([N+](=O)[O-])ccc3N2C(=O)CCl)cc1 (stereo unspecified)
- IC50 [1]: 4.45 µM
- ΔTm [2]: 3.13 °C

SMILES: O=C1CCCC2=C1C(C1CCC1)N(C(=O)CCl)c1ccc([N+](=O)[O-])cc1N2 (stereo unspecified)
- IC50 [1]: 2.48 µM
- ΔTm [2]: 5.83 °C

SMILES: Cc1ccc(C2C3=C(CC(C)CC3=O)Nc3cc([N+](=O)[O-])ccc3N2C(=O)CCl)cc1 (stereo unspecified)
- IC50 [1]: 3.35 µM
- ΔTm [2]: 1.62 °C

SMILES: CC1(C)CC(=O)C2=C(C1)Nc1cc([N+](=O)[O-])ccc1N(C(=O)CCl)C2c1ccc(C(F)(F)F)cc1 (stereo unspecified)
- IC50 [1]: 3.73 µM
- ΔTm [2]: -0.54 °C

SMILES: CC1(C)CC(=O)C2=C(C1)Nc1cc([N+](=O)[O-])ccc1N(C(=O)CCl)C2C1CCC1 (stereo unspecified)
- IC50 [1]: 9.57 µM
- ΔTm [2]: 2.72 °C

SMILES: N#Cc1ccc2c(c1)NC1=C(C(=O)CCC1)C(c1ccc(C(F)(F)F)cc1)N2C(=O)CCl (stereo unspecified)
- IC50 [1]: 1.84 µM
- ΔTm [2]: 6.02 °C

SMILES: CC1CC(=O)C2=C(C1)Nc1cc([N+](=O)[O-])ccc1N(C(=O)CCl)C2c1ccc(F)cc1F (stereo unspecified)
- IC50 [1]: 6.21 µM
- ΔTm [2]: 3.25 °C

SMILES: CC1C2=C(CC(C)(C)CC2=O)Nc2cc([N+](=O)[O-])ccc2N1C(=O)CCl (stereo unspecified)
- IC50 [1]: 23.3 µM
- ΔTm [2]: 1.32 °C

SMILES: CC1(C)CC(=O)C2=C(C1)Nc1cc([N+](=O)[O-])ccc1N(C(=O)CCl)C2c1ccccc1 (stereo unspecified)
- IC50 [1]: 4.52 µM
- ΔTm [2]: 4.74 °C

SMILES: CC1(C)CC(=O)C2=C(C1)Nc1cc([N+](=O)[O-])ccc1N(C(=O)CCl)C2C1CCCCC1 (stereo unspecified)
- IC50 [1]: 5.26 µM
- ΔTm [2]: 4.64 °C

SMILES: COC(=O)c1ccc2c(c1)NC1=C(C(=O)CCC1)C(c1ccc(C(F)(F)F)cc1)N2C(=O)CCl (stereo unspecified)
- IC50 [1]: 0.18 µM
- ΔTm [2]: 8.45 °C

SMILES: O=C1CCCC2=C1C(c1ccc(F)cc1F)N(C(=O)CCl)c1ccc([N+](=O)[O-])cc1N2 (stereo unspecified)
- IC50 [1]: 4.09 µM
- ΔTm [2]: 2.95 °C

SMILES: O=C1CCCC2=C1C(C1CCCC1)N(C(=O)CCl)c1ccc([N+](=O)[O-])cc1N2 (stereo unspecified)
- IC50 [1]: 1.92 µM
- ΔTm [2]: 6.27 °C

SMILES: COc1ccc(C2C3=C(CC(C)(C)CC3=O)Nc3cc([N+](=O)[O-])ccc3N2C(=O)CCl)cc1 (stereo unspecified)
- IC50 [1]: 4.52 µM
- ΔTm [2]: -2.76 °C

SMILES: CC1CC(=O)C2=C(C1)Nc1cc([N+](=O)[O-])ccc1N(C(=O)CCl)C2c1ccccc1 (stereo unspecified)
- IC50 [1]: 3.36 µM
- ΔTm [2]: 3.16 °C

SMILES: CC1(C)CC(=O)C2=C(C1)Nc1cc([N+](=O)[O-])ccc1N(C(=O)CCl)C2C1CCCC1 (stereo unspecified)
- IC50 [1]: 9.12 µM
- ΔTm [2]: 3.53 °C

SMILES: CC1CC(=O)C2=C(C1)Nc1cc([N+](=O)[O-])ccc1N(C(=O)CCl)C2C1CC1 (stereo unspecified)
- IC50 [1]: 9.06 µM
- ΔTm [2]: 4.66 °C

SMILES: COc1ccc(C2C3=C(CCCC3=O)Nc3cc([N+](=O)[O-])ccc3N2C(=O)CCl)cc1 (stereo unspecified)
- IC50 [1]: 2.05 µM
- ΔTm [2]: 4.55 °C

SMILES: CC1CC(=O)C2=C(C1)Nc1cc([N+](=O)[O-])ccc1N(C(=O)CCl)C2c1ccc(C(F)(F)F)cc1 (stereo unspecified)
- IC50 [1]: 3.31 µM
- ΔTm [2]: 4.02 °C

SMILES: O=C1CCCC2=C1CN(C(=O)CCl)c1ccc([N+](=O)[O-])cc1N2
- IC50 [1]: 5.11 µM
- ΔTm [2]: 4.1 °C

SMILES: CC1CC(=O)C2=C(C1)Nc1cc([N+](=O)[O-])ccc1N(C(=O)CCl)C2C1CCC1 (stereo unspecified)
- IC50 [1]: 7.32 µM
- ΔTm [2]: 2.74 °C
